# Laboratory results from paper PMC3029338, “Highly Selective End-Tagged Antimicrobial Peptides Derived from PRELP” (PLoS ONE, 2011).
# Ends that are not written are not given here.
# Experiments:
# [1] = system: human erythrocytes in 50% citrate blood with S. aureus or P. aeruginosa; conditions: peptide 120 µM (highest dose), 1 hour 37°C, in words
# Method: For analysis of peptide-induced permeabilization of human erythroytes, EDTA-, or citrate-blood was drawn from healthy volunteers, [51], centrifuged at 800 g for 10 min, and plasma and buffy coat were removed. For experiments using EDTA-blood, [51] erythrocytes were washed three times and resuspended to 5% in PBS, pH 7.4. For experiments in 50% blood, citrate-blood was diluted (1∶1) with PBS. The cells were then incubated with end-over-end rotation for 1 h at 37°C in the presence of peptides (60 µM). 2% Triton X-100 (Sigma-Aldrich, St. Louis, USA) served as positive control. The samples were then centrifuged at 800 g for 10 min. The absorbance of hemoglobin release was measured at 540 nm and is expressed as % of TritonX-100 induced hemolysis. In the experiments with blood infected by bacteria, citrate-blood was diluted (1∶1) with PBS. The cells were then incubated with end-over-end rotation for 1 h at 37°C in the presence of peptides (60 and 120 µM) and S. aureus (2×10^8 cfu/ml) or P. aeruginosa (2×10^8 cfu/ml) bacteria. For evaluation of hemolysis, samples were then processed as above. Results given represent mean values from triplicate measurements.
# [2] = molecular target: T1, human neutrophil elastase (Homo sapiens, UniProt P08246); experiment: Protease sensitivity assay (SDS-PAGE); type: in vitro ADME; conditions: 1 µg peptide, 0.4 µg enzyme, 30 µl, 37°C, 3 hours (legend: 4 h), SDS-PAGE Coomassie; in words
# T1 construct: purchased Calbiochem (La Jolla, USA)
# Method: (§1) For evaluation of sensitivity to bacterial and endogenous proteases, peptides (1 µg) were incubated at 37°C with S. aureus aureolysin (0.1 µg, 25000 units/mg), S. aureus V8 proteinase (0.1 µg, 2000 mU), both from BioCol GmbH (Potsdam, Germany), human neutrophil elastase (0.4 µg, 29 units/mg; Calbiochem (La Jolla, USA)) or P. aeruginosa elastase (0.1 µg, 261 units/mg) (Calbiochem, La Jolla, USA) in a total volume of 30 µl for 3 hours. The materials were analyzed on 16.5% precast sodium dodecyl sulfate polyacrylamide (SDS-PAGE) Tris-Tricine gels (BioRad, Hercules, USA) and analyzed after staining with Coomassie Blue R-250 (Merck, Darmstadt, Germany).
# S. aureus V8 proteinase = molecular target: T2, S. aureus V8 proteinase (Staphylococcus aureus, UniProt P0C1U8); experiment: Protease sensitivity assay (SDS-PAGE); type: in vitro ADME; conditions: 1 µg peptide, 0.1 µg enzyme, 30 µl, 37°C, 3 hours (legend: 4 h), SDS-PAGE Coomassie; in words
# T2 construct: purchased BioCol GmbH (Potsdam, Germany)
# Method: as §1
# S. aureus aureolysin = molecular target: T3, S. aureus aureolysin (Staphylococcus aureus, UniProt P81177); experiment: Protease sensitivity assay (SDS-PAGE); type: in vitro ADME; conditions: 1 µg peptide, 0.1 µg enzyme, 30 µl, 37°C, 3 hours (legend: 4 h), SDS-PAGE Coomassie; in words
# T3 construct: purchased BioCol GmbH (Potsdam, Germany)
# Method: as §1
# P. aeruginosa elastase = molecular target: T4, P. aeruginosa elastase (Pseudomonas aeruginosa, UniProt P14756); type: in vitro ADME; conditions: 37°C, in words; for stability against P. aeruginosa elastase: 1 µg peptide, 0.1 µg enzyme, 30 µl, 3 hours (legend: 4 h), SDS-PAGE Coomassie; for stability against P. aeruginosa elastase, extended digestion: different times up to 18 h, SDS-PAGE
# T4 construct: purchased Calbiochem (La Jolla, USA)
# Method: […] The materials were analyzed on 16.5% precast sodium dodecyl sulfate polyacrylamide (SDS-PAGE) Tris-Tricine gels (BioRad, Hercules, USA) and analyzed after staining with Coomassie Blue R-250 (Merck, Darmstadt, Germany).
# P. aeruginosa = conditions: in words; cited from earlier work
# From the text: (§2) Considering the increasing resistance problems against conventional antibiotics, AMPs have recently emerged as potential therapeutic candidates in the above conditions. For example, the indolicidin-derived peptide omiganan is currently being evaluated in Phase III clinical trials for treatment of catheter-related infections. However, the use of AMPs in this context is challenging, as bacteria are able to excrete proteolytic enzymes, [38], and in the case of P. aeruginosa also AMP-scavenging exopolysaccharides, as a defense against AMPs.
# S. aureus = conditions: in words; cited from earlier work
# From the text: as §2
# erythrocytes = conditions: cited from earlier work
# From the text: as §2
# [3] = system: Escherichia coli - ESBL - TEM; type: cell-based
# Method: (§3) In order to determine the minimal inhibitory concentration (MIC) for a given peptide and bacteria, we used a standardized dilution method according to NCSLA guidelines. In brief, fresh overnight colonies were suspended to a turbidity of 0.5 units and further diluted in Mueller-Hinton broth (MH) (Becton Dickinson). For determination of MIC, peptides were dissolved in water at concentration 10 times higher than the required range by serial dilutions from a stock solution. Ten µl of each concentration was added to each corresponding well of a 96-well microtiter plate (polypropylene, Costar Corp.) and 90 µl of bacteria (1×10^5) in MH medium added. The plate was incubated at 37°C for 16–18 h. MIC was considered as the lowest concentration of peptide where no visual growth of bacteria was detected. Additional MIC determinations presented in Table 2 were performed using cation-adjusted MH broth at Quotient Bioresearch Ltd., Fordham, United Kingdom.
# [4] = system: Group C Streptococcus – antibiotic-susceptible clinical isolate; type: cell-based
# Method: as §3
# [5] = system: MU50 Staphylococcus aureus (MRSA) – VISA type strain; type: cell-based
# Method: as §3
# [6] = system: Group G Streptococcus – antibiotic-susceptible clinical isolate; type: cell-based
# Method: as §3
# [7] = system: Staphylococcus aureus - teicoplanin-intermediate clinical isolate; type: cell-based
# Method: as §3
# [8] = system: Escherichia coli - multi-drug resistant clinical isolate; type: cell-based
# Method: as §3
# [9] = system: Group C Streptococcus – macrolide-resistant clinical isolate; type: cell-based
# Method: as §3
# [10] = system: EMRSA3 Staphylococcus aureus (MRSA) – SSCmec type 1; type: cell-based; conditions: EMRSA3 – SSCmec type 1
# Method: as §3
# [11] = system: Streptococcus pyogenes – antibiotic-susceptible clinical isolate; type: cell-based
# Method: as §3
# [12] = system: Pseudomonas aeruginosa - multi-drug resistant clinical isolate; type: cell-based
# Method: as §3
# [13] = system: Staphylococcus epidermidis– methicillin-resistant clinical isolate; type: cell-based
# Method: as §3
# [14] = system: Streptococcus pyogenes – Macrolide (M-type) resistance clinical isolate; type: cell-based
# Method: as §3
# [15] = system: Pseudomonas aeruginosa – Liverpool genotype LES 431; type: cell-based
# Method: as §3
# [16] = system: HT2001254 Staphylococcus aureus (MRSA) – PVL positive; type: cell-based
# Method: as §3
# [17] = system: Staphylococcus haemolyticus – antibiotic susceptible clinical isolate; type: cell-based
# Method: as §3
# [18] = system: Escherichia coli ATCC 35218 - β-lactamase positive type strain; type: cell-based
# Method: as §3
# [19] = system: Group G Streptococcus – macrolide-resistant clinical isolate; type: cell-based
# Method: as §3
# [20] = system: Staphylococcus aureus - multi-drug-resistant clinical isolate; type: cell-based
# Method: as §3
# [21] = system: Staphylococcus epidermidis – antibiotic susceptible clinical isolate; type: cell-based
# Method: as §3
# [22] = system: Staphylococcus aureus ATCC 43300 – methicillin-resistant type strain; type: cell-based
# Method: as §3
# [23] = system: Escherichia coli - ESBL - SHV; type: cell-based
# Method: as §3
# [24] = system: Escherichia coli ATCC 25922 - antibiotic-susceptible type strain; type: cell-based
# Method: as §3
# [25] = system: EMRSA16 Staphylococcus aureus (MRSA) – SSCmec type 2; type: cell-based; conditions: EMRSA16 – SSCmec type 2
# Method: as §3
# [26] = system: EMRSA1 Staphylococcus aureus (MRSA) – SSCmec type 3; type: cell-based; conditions: EMRSA1 – SSCmec type 3
# Method: as §3
# [27] = system: Escherichia coli - ESBL - CTXM; type: cell-based
# Method: as §3
# [28] = system: Streptococcus pyogenes – ATCC 19615; type: cell-based
# Method: as §3
# [29] = system: Pseudomonas aeruginosa ATCC 27853 - antibiotic-susceptible type strain; type: cell-based
# Method: as §3
# [30] = system: Streptococcus pyogenes – Macrolide (MLS) resistant clinical isolate; type: cell-based
# Method: as §3
# [31] = system: EMRSA15 Staphylococcus aureus (MRSA) – SSCmec type 4; type: cell-based; conditions: EMRSA15 – SSCmec type 4
# Method: as §3
# [32] = system: Staphylococcus aureus – methicillin-resistant clinical isolate; type: cell-based
# Method: as §3
# [33] = system: Staphylococcus aureus ATCC 29213 – antibiotic-susceptible type strain; type: cell-based
# Method: as §3
# [34] = system: Staphylococcus saprophyticus – antibiotic susceptible clinical isolate; type: cell-based
# Method: as §3
# T2 sequence (P0C1U8 69-336): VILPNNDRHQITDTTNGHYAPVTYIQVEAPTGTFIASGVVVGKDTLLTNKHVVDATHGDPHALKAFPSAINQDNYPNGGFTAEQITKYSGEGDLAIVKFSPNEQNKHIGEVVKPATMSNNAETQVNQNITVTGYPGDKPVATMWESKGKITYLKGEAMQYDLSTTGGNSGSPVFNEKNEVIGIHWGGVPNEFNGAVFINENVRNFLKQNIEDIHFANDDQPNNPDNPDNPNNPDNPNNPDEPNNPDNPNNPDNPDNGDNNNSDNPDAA
# T4 sequence (P14756 198-498): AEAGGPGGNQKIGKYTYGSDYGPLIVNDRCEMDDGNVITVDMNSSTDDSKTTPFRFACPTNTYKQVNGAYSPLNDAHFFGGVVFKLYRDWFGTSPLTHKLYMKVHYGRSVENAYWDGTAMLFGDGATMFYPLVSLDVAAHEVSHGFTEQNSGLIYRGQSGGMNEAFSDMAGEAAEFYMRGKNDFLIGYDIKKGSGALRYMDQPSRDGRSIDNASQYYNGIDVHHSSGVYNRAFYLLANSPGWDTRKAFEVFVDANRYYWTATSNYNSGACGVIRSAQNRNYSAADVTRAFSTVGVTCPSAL
# T3 sequence (P81177 209-509): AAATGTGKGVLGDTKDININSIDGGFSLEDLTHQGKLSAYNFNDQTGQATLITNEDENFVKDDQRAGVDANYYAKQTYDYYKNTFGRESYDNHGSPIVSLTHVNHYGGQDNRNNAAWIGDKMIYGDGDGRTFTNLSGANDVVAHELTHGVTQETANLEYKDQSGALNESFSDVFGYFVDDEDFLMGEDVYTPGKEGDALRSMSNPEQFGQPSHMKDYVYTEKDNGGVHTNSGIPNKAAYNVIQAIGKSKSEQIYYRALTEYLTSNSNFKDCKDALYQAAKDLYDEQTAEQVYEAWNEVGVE
# T1 sequence (P08246 30-267): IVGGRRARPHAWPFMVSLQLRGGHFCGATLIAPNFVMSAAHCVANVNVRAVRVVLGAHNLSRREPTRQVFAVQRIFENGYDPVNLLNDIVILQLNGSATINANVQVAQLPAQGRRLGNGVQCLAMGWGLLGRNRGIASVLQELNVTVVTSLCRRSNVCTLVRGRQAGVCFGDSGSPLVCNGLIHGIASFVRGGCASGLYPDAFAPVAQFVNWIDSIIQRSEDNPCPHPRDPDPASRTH
molecule,measurement,setting,value
CC[C@H](C)[C@H](NC(=O)[C@H](CCCCN)NC(=O)[C@H](CCC(=O)O)NC(=O)[C@H](CCCCN)NC(=O)[C@H](CO)NC(=O)[C@H](CCCCN)NC(=O)[C@H](CCCNC(=N)N)NC(=O)[C@H](Cc1ccccc1)NC(=O)[C@H](Cc1ccccc1)NC(=O)[C@H](CC(=O)O)NC(=O)CNC(=O)[C@H](CC(C)C)NC(=O)[C@@H](N)CC(C)C)C(=O)NCC(=O)N[C@@H](CCCCN)C(=O)N[C@@H](CCC(=O)O)C(=O)N[C@@H](Cc1ccccc1)C(=O)N[C@@H](CCCCN)C(=O)N[C@@H](CCCNC(=N)N)C(=O)N[C@H](C(=O)N[C@H](C(=O)N[C@@H](CCC(N)=O)C(=O)N[C@@H](CCCNC(=N)N)C(=O)N[C@H](C(=O)N[C@@H](CCCCN)C(=O)N[C@@H](CC(=O)O)C(=O)N[C@@H](Cc1ccccc1)C(=O)N[C@@H](CC(C)C)C(=O)N[C@@H](CCCNC(=N)N)C(=O)N[C@@H](CC(N)=O)C(=O)N[C@@H](CC(C)C)C(=O)N[C@H](C(=O)N1CCC[C@H]1C(=O)N[C@@H](CCCNC(=N)N)C(=O)N[C@H](C(=O)N[C@@H](CCC(=O)O)C(=O)N[C@@H](CO)C(=O)O)[C@@H](C)O)C(C)C)[C@@H](C)CC)C(C)C)[C@@H](C)CC [reference compound],hemolysis in human blood infected by bacteria,[1],significant concomitant hemolysis
same,stability against human neutrophil elastase,[2],extensively degraded
same,stability against S. aureus V8 proteinase,S. aureus V8 proteinase,extensively degraded
same,stability against S. aureus aureolysin,S. aureus aureolysin,extensively degraded
same,stability against P. aeruginosa elastase,P. aeruginosa elastase,extensively degraded
GRRPRPRPRPWWWW-NH2 [GRRPRPRPRPWWWW-NH2],stability against S. aureus V8 proteinase,S. aureus V8 proteinase,largely unaffected
same,stability against S. aureus aureolysin,S. aureus aureolysin,largely unaffected
same,stability against P. aeruginosa elastase,P. aeruginosa elastase,largely unaffected
"ILRWPWWPWRRK-NH2 [ILRWPWWPWRRK-NH2, reference compound]","stability against P. aeruginosa elastase, extended digestion",P. aeruginosa elastase,degraded during extended digestion
"QPTRRPRPGTGPGRRPRPRPRP [QPT22, PRELP-derived peptide of earlier work]",antimicrobial effects,P. aeruginosa,exert antimicrobial effects
same,antimicrobial effects,S. aureus,exert antimicrobial effects
same,hemolytic activity,erythrocytes,no hemolytic activity
RRPRPRPRPWWWW-NH2 [RRPRPRPRPWWWW-NH2],hemolysis in human blood infected by bacteria,[1],no accompanying hemolysis
same,stability against S. aureus V8 proteinase,S. aureus V8 proteinase,largely unaffected
same,stability against S. aureus aureolysin,S. aureus aureolysin,largely unaffected
same,stability against P. aeruginosa elastase,P. aeruginosa elastase,largely unaffected
same,"stability against P. aeruginosa elastase, extended digestion",P. aeruginosa elastase,maintained stability
same,MIC,[3],16 µg/mL
same,MIC,[4],8 µg/mL
same,MIC,[5],32 µg/mL
same,MIC,[6],32 µg/mL
same,MIC,[7],32 µg/mL
same,MIC,[8],16 µg/mL
same,MIC,[9],8 µg/mL
same,MIC,[10],16 µg/mL
same,MIC,[11],32 µg/mL
same,MIC,[12],128 µg/mL
same,MIC,[13],8 µg/mL
same,MIC,[14],16 µg/mL
same,MIC,[15],128 µg/mL
same,MIC,[16],32 µg/mL
same,MIC,[17],8 µg/mL
same,MIC,[18],16 µg/mL
same,MIC,[19],16 µg/mL
same,MIC,[20],32 µg/mL
same,MIC,[21],8 µg/mL
same,MIC,[22],16 µg/mL
same,MIC,[23],32 µg/mL
same,MIC,[24],16 µg/mL
same,MIC,[25],32 µg/mL
same,MIC,[26],32 µg/mL
same,MIC,[27],16 µg/mL
same,MIC,[28],16 µg/mL
same,MIC,[29],64 µg/mL
same,MIC,[30],16 µg/mL
same,MIC,[31],16 µg/mL
same,MIC,[32],32 µg/mL
same,MIC,[33],16 µg/mL
same,MIC,[34],64 µg/mL
